According to patent US20230115640A1, “BLASTOCYST-LIKE STRUCTURES FROM EXTENDED PLURIPOTENT STEM CELLS” (Salk Institute for Biological Studies, priority 2019, published 2023):
Where “and” joins values, the source holds several entries; their conditions need not be identical. Identical values can stand only once.

Columns and labels:
[1] = system: mouse EPS cell aggregates; experiment: EPS-blastoid formation efficiency (blastocyst-like structures / total cell aggregates) in AggreWell 3D differentiation; type: cell-based; conditions: for Nblastoid/Ntotal (%), EPS-blastoid efficiency with treatment of Wnt antagonists: XAV939 5 μM or IWR-1-endo 10 μM added to medium at day 1, five days in blastoid induction medium; for EPS-blastoids formation (effect of WNT antagonists, in words): blastoid induction medium supplemented with antagonist
Description: To further improve the differentiation conditions, different growth factors, cytokines, and small molecules were included to identify condition(s) that enable the generation of structures mimicking blastocysts (EPS-blastoids), which contain a cavity and an inner cell mass. […] Using this optimized condition, EPS-blastoids consistently emerged three days after cell seeding (FIG. 1D). EPS-blastoids continued to enlarge, reaching an early blastocyst-like size at around day five or day six. To quantify the efficiency of EPS-blastoid formation, the total number of blastocyst-like structures were counted, with this count divided it by the total number of cell aggregates.
EPS colonies were dissociated into single cells by incubation with TrypLE (Thermo Fisher Scientific, 12604-013). Cell resuspension was transferred into a 0.1% gelatin-coated plate and incubated at 37° C. for 30 min to allow irradiated MEF cells attach to the plate. The supernatant containing the EPS cells were collected, filtered through a 40 μm cell strainer, and counted using the TC-10 counter (Bio-Rad, 1450001). AggreWell 400 (STEMCELL Technologies, 34415) was prepared following the manufacturer's instructions. EPS-blastoid basal medium is composed of 25% TSC basal medium (see above), 25% N2B27 basal medium (see above), and 50% KSOM (see above). In some experiments, M16 (Sigma-Aldrich, M7292) was used to replace KSOM. Approximately 6,000 cells (five cells per microwell for 1200 microwells) were resuspended in EPS-blastoid basal medium supplemented with 2 μM ROCK inhibitor Y-27632 (Reagents Direct, 53-B80-50), 12.5 ng/ml rhFGF4 (R&D, 235F4025), 0.5 μg/ml Heparin (Sigma-Aldrich, H3149), 3 μM GSK3 inhibitor CHIR99021 (Reagents Direct, 27-H76), 5 ng/ml BMP4 (Proteintech, HZ-1040), and 0.5 μM A83-01 (Axon Medchem, 1421) and seeded into one well of the 24-well AggreWell plate. The plate was centrifuged at 300g for one minute and transferred into an incubator. The day of cell seeding was counted as day 0 of the process. Medium was removed 24 h later (day 1) and replaced with fresh medium without Y-27632. Additional medium change is optional for the rest of the EPS-blastoid formation process. Starting from day 4, blastoids were manually picked up using a mouth pipette (Sigma-Aldrich, A5177) under a stereomicroscope for analysis or downstream experiments. For testing of the effect of antagonists or inhibitors on EPS-blastoid induction, chemicals were added to the medium at day 1. XAV939 (5 μM; Tocris, 3748) or IWR-1-endo (10 μM; STEMCELL Technologies, 72562) was used to inhibit Wnt signaling. Verteporfin (2 μM; Tocris, 5305) was used to inhibit YAP/TEAD interaction. For testing whether a single EPS cell forms into a blastoid, WT cells and Puromycin+/mcherry+ cells were mixed at a ratio of 10:1 and seeded onto Aggrewell 400 as stated above. Puromycin (0.25 μg/ml; InvivoGen, ant-pr-1) was added to the medium 24 hours later to eliminate helper cells gradually.

EPS cells = experiment: EPS cell survival on the day of seeding; type: cell-based, mouse; conditions: treated on the day of seeding
mouse ESCs = conditions: He et al., 2008; cited from earlier work

For `O=C(Nc1cccc2cccnc12)c1ccc(N2C(=O)[C@@H]3[C@H](C2=O)[C@@H]2C=C[C@H]3C2)cc1` [IWR-1-endo], the “Nblastoid/Ntotal (%), EPS-blastoid efficiency with treatment of Wnt antagonists” value ([1]; per experiment) was 0.28% and 0.41% and 1.23% and 0.81% and 0.42% and the “EPS-blastoids formation (effect of WNT antagonists, in words)” value [1] was “significantly inhibited”.

For `Oc1nc(-c2ccc(C(F)(F)F)cc2)nc2c1CSCC2` [XAV939], the “Nblastoid/Ntotal (%), EPS-blastoid efficiency with treatment of Wnt antagonists” value ([1]; per experiment, listed as XVA939) was 0.3% and 0.28% and 0.45% and 0.41% and 0.8% and the “EPS-blastoids formation (effect of WNT antagonists, in words)” value [1] was “significantly inhibited”.

For `C[C@@H](N)[C@H]1CC[C@H](C(=O)Nc2ccncc2)CC1` [Y-27632], the “cell survival of EPS cells” value (EPS cells) was “enhanced cell survival”.

In the case of verteporfin [VP], the “Nblastoid/Ntotal (%), EPS-blastoid efficiency with treatment of YAP-TEAD inhibitor” value ([1]; verteporfin 2 μM added to medium at day 1, five days of blastoid induction, per experiment) is reported as 1.43% and 0.36% and 0.87% and 1.05%.

B1: Wnt-3a (protein, UniProt P56704 19-352, looked up)
Protein Wnt-3a: SYPIWWSLAVGPQYSSLGSQPILCASIPGLVPKQLRFCRNYVEIMPSVAEGIKIGIQECQHQFRGRRWNCTTVHDSLAIFGPVLDKATRESAFVHAIASAGVAFAVTRSCAEGTAAICGCSSRHQGSPGKGWKWGGCSEDIEFGGMVSREFADARENRPDARSAMNRHNNEAGRQAIASHMHLKCKCHGLSGSCEVKTCWWSQPDFRAIGDFLKDKYDSASEMVVEKHRESRGWVETLRPRYTYFKVPTERDLVYYEASPNFCEPNPETGSFGTRDRTCNVSSHGIDGCDLLCCGRGHNARAERRREKCRCVFHWCCYVSCQECTRVYDVHTCK
notes: Wnt agonist protein
In the case of B1, the “CDX2 (trophoblast transcription factor) expression in mouse ESCs” value (mouse ESCs) is given as “transiently up-regulates CDX2”.
